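These data come from cells grown in 96-well plates and exposed to compound for 48 hours at five concentrations. Abbreviation: GI50, concentration required for 50% inhibition of growth.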 The source made the active and inactive calls. Rule as the data show it: active = GI50 up to about 1.1 µM and inactive = higher.
Legend:
Experiment in all cases: DTP human tumour cell line panel, 48 h
[1] = system: CCRF-CEM
[2] = system: DU-145
[3] = system: HCT-116
[4] = system: HCT-15
[5] = system: IGROV-1
[6] = system: K562
[7] = system: KM12
[8] = system: MDA-MB-231
[9] = system: MDA-MB-435
[10] = system: Malme-3M
[11] = system: NCI/ADR-RES
[12] = system: OVCAR-5
[13] = system: OVCAR-8
[14] = system: RPMI-8226
[15] = system: SK-MEL-2
[16] = system: SK-MEL-5
[17] = system: SN12C
[18] = system: SNB-19
[19] = system: SR
[20] = system: SW-620

| Compound | GI50 [1] | GI50 [2] | GI50 [3] | GI50 [4] [µM] | GI50 [5] | GI50 [6] | GI50 [7] | GI50 [8] | GI50 [9] | GI50 [10] | GI50 [11] | GI50 [12] | GI50 [13] | GI50 [14] | GI50 [15] | GI50 [16] | GI50 [17] | GI50 [18] | GI50 [19] | GI50 [20] |
| --- | --- | --- | --- | --- | --- | --- | --- | --- | --- | --- | --- | --- | --- | --- | --- | --- | --- | --- | --- | --- |
| Cc1cc(N2CCN(C)CC2)n2nc(-c3ccc(Cl)cc3)nc2n1 | 11.5 µM (inactive) | > 100 µM (inactive) | 61.7 µM (inactive) | > 100 | > 100 µM (inactive) | 60.4 µM (inactive) | > 100 µM (inactive) | > 100 µM (inactive) | > 100 µM (inactive) | > 100 µM (inactive) | 90.6 µM (inactive) | > 100 µM (inactive) | > 100 µM (inactive) | 56.5 µM (inactive) | 74.8 µM (inactive) | 50.2 µM (inactive) | 54.6 µM (inactive) | > 100 µM (inactive) | 17.7 µM (inactive) | > 100 µM (inactive) |
| C=C1C(=O)C=C[C@]2(C)CC[C@H]3C(=C)C(=O)O[C@@H]3[C@@H]12 | 0.579 µM (active) | 2.09 µM (inactive) | 0.195 µM (active) | 0.785 | 1.29 µM (inactive) | 1.39 µM (inactive) | 1.61 µM (inactive) | 4.08 µM (inactive) | 1.57 µM (inactive) | 1.97 µM (inactive) | 2.34 µM (inactive) | 1.33 µM (inactive) | 1.53 µM (inactive) | 0.346 µM (active) | 2.55 µM (inactive) | 2.34 µM (inactive) | 2.96 µM (inactive) | 14.6 µM (inactive) | 1.79 µM (inactive) | 0.813 µM (active) |
| Cc1nn(C(=O)c2ccccc2O)c2c1C(c1ccc([N+](=O)[O-])cc1)SC(=N)N2 (centres undefined) | 3.32 µM (inactive) | 3.64 µM (inactive) | 2.48 µM (inactive) | 5.14 | 1.88 µM (inactive) | 1.17 µM (inactive) | 5.36 µM (inactive) | > 5.94 µM (inactive) | 1.45 µM (inactive) | 4.42 µM (inactive) | 4.51 µM (inactive) | > 7.76 µM (inactive) | 4 µM (inactive) | > 7.03 µM (inactive) | > 5.46 µM (inactive) | > 6.43 µM (inactive) | 4.78 µM (inactive) | 6.05 µM (inactive) | 4.83 µM (inactive) | 6.17 µM (inactive) |
| Oc1nc2cc3nc(O)c(O)nc3cc2nc1O | > 100 µM (inactive) | > 100 µM (inactive) | > 100 µM (inactive) | > 100 | > 100 µM (inactive) | > 100 µM (inactive) | > 100 µM (inactive) | > 100 µM (inactive) | > 100 µM (inactive) | > 100 µM (inactive) | > 100 µM (inactive) | > 100 µM (inactive) | > 100 µM (inactive) | > 100 µM (inactive) | > 100 µM (inactive) | > 100 µM (inactive) | > 100 µM (inactive) | > 100 µM (inactive) | > 10 µM (inactive) | > 100 µM (inactive) |
| O=C1CCCc2ccc3c(c21)CC1(Cc2cc4c(cc2C1)CCCC4)C3 | 3.94 µM (inactive) | 20.9 µM (inactive) | 16.1 µM (inactive) | 19.4 | 24.7 µM (inactive) | 6.49 µM (inactive) | 22.2 µM (inactive) | 15.5 µM (inactive) | 19.6 µM (inactive) | 18.3 µM (inactive) | 25.9 µM (inactive) | 27.4 µM (inactive) | 19.7 µM (inactive) | 10.2 µM (inactive) | 21.2 µM (inactive) | 12.6 µM (inactive) | 19.1 µM (inactive) | 26.6 µM (inactive) | 6.98 µM (inactive) | 16 µM (inactive) |
| COC(=O)CC1C=CC(C)(OC)OO1 (centres undefined) | 15.7 µM (inactive) | > 100 µM (inactive) | > 100 µM (inactive) | 39.4 | > 100 µM (inactive) | 19.7 µM (inactive) | > 100 µM (inactive) | > 100 µM (inactive) | > 100 µM (inactive) | 78.7 µM (inactive) | > 100 µM (inactive) | > 100 µM (inactive) | > 100 µM (inactive) | 56.2 µM (inactive) | > 100 µM (inactive) | > 100 µM (inactive) | > 100 µM (inactive) | > 100 µM (inactive) | 58.5 µM (inactive) | 27.2 µM (inactive) |
| O=c1cc(NNc2cccc3ccccc23)[nH]c(=O)[nH]1 | 10.1 µM (inactive) | 15.3 µM (inactive) | 17.4 µM (inactive) | 12.4 | 15.4 µM (inactive) | 12.9 µM (inactive) | 16.4 µM (inactive) | 13.3 µM (inactive) | 17.1 µM (inactive) | 17.8 µM (inactive) | 19.5 µM (inactive) | 17.2 µM (inactive) | 18 µM (inactive) | 5.53 µM (inactive) | 15 µM (inactive) | 15.8 µM (inactive) | 16.2 µM (inactive) | 14.3 µM (inactive) | 2.61 µM (inactive) | 20 µM (inactive) |
| C1=C\CCCCN2C[C@H]3CCCC/C=C\CCCCN4CC[C@@H]([C@H](CCCCCC/1)C4)[C@H](C3)C2 | 2.58 µM (inactive) | 5.48 µM (inactive) | 2.11 µM (inactive) | 1.77 | 3.37 µM (inactive) | 1.47 µM (inactive) | 1.82 µM (inactive) | 0.979 µM (active) | 1.86 µM (inactive) | 1.85 µM (inactive) | 3.12 µM (inactive) | 7.5 µM (inactive) | 2.84 µM (inactive) | 1.57 µM (inactive) | 1.88 µM (inactive) | 1.61 µM (inactive) | 10 µM (inactive) | 2.06 µM (inactive) | 2.4 µM (inactive) | 2.44 µM (inactive) |
| CCOC(=O)O/N=C1/C(=C2/C(=O)Nc3ccccc32)Nc2ccccc21 | 2.87 µM (inactive) | 2.87 µM (inactive) | 3.03 µM (inactive) | 2.7 | 4.34 µM (inactive) | 12.2 µM (inactive) | 0.192 µM (active) | 11.6 µM (inactive) | 4.48 µM (inactive) | 10 µM (inactive) | 4.83 µM (inactive) | 16.5 µM (inactive) | 5.83 µM (inactive) | 10.8 µM (inactive) | 2.29 µM (inactive) | 2.37 µM (inactive) | 4.41 µM (inactive) | 18.7 µM (inactive) | 3.61 µM (inactive) | 5.21 µM (inactive) |
| CC1NCCC(CC(=O)O)C1CC(=O)O (centres undefined) | > 100 µM (inactive) | > 100 µM (inactive) | > 100 µM (inactive) | > 100 | > 100 µM (inactive) | > 100 µM (inactive) | > 100 µM (inactive) | > 100 µM (inactive) | > 100 µM (inactive) | > 100 µM (inactive) | > 100 µM (inactive) | > 100 µM (inactive) | > 100 µM (inactive) | > 100 µM (inactive) | > 100 µM (inactive) | > 100 µM (inactive) | > 100 µM (inactive) | > 100 µM (inactive) | > 100 µM (inactive) | > 100 µM (inactive) |
| O=C1c2ccccc2C(=O)N1c1nc(-c2ccc(Cl)cc2)cc(N2N=C(c3ccc(Br)cc3)CC2c2ccccc2)n1 (centres undefined) | 4.13 µM (inactive) | 3.45 µM (inactive) | 2.01 µM (inactive) | 1.99 | 2.84 µM (inactive) | 3.08 µM (inactive) | 9.4 µM (inactive) | 4.07 µM (inactive) | 0.745 µM (active) | > 44.7 µM (inactive) | 1.97 µM (inactive) | 1.04 µM (active) | 3.35 µM (inactive) | 2.7 µM (inactive) | 3.26 µM (inactive) | 1.96 µM (inactive) | 2.9 µM (inactive) | 4.86 µM (inactive) | 0.65 µM (active) | 2.53 µM (inactive) |
| CC1=C(C)C2(C#N)C(=O)N3C(=NC(c4ccccc4)NC3c3ccccc3)C2(C#N)C(c2ccccc2)N1 (centres undefined) | > 100 µM (inactive) | > 100 µM (inactive) | > 100 µM (inactive) | > 100 | > 100 µM (inactive) | > 100 µM (inactive) | > 100 µM (inactive) | > 100 µM (inactive) | > 100 µM (inactive) | > 100 µM (inactive) | > 100 µM (inactive) | > 100 µM (inactive) | > 100 µM (inactive) | > 100 µM (inactive) | > 100 µM (inactive) | > 100 µM (inactive) | > 100 µM (inactive) | > 100 µM (inactive) | > 100 µM (inactive) | > 100 µM (inactive) |
| C#CC(O)/C=C/C(O)CCCC(O)CC#CC(O)C#CC(O)CCCC(O)/C=C/CCCC(=O)CCCCCCCCCCCCCCCC(O)C(O)C#CC(=O)O (centres undefined) | 14.1 µM (inactive) | > 50 µM (inactive) | > 50 µM (inactive) | > 50 | 9.79 µM (inactive) | > 50 µM (inactive) | > 50 µM (inactive) | > 50 µM (inactive) | > 50 µM (inactive) | > 50 µM (inactive) | > 50 µM (inactive) | > 50 µM (inactive) | > 50 µM (inactive) | > 50 µM (inactive) | > 50 µM (inactive) | > 50 µM (inactive) | > 50 µM (inactive) | > 50 µM (inactive) | 19.3 µM (inactive) | – |
| CC(=O)OCCOc1cc2c([nH]c3ccccc32)c(C)c2cccc1-2 | 3.38 µM (inactive) | 4.16 µM (inactive) | 3.3 µM (inactive) | 2.94 | 1.77 µM (inactive) | 1.36 µM (inactive) | 2.34 µM (inactive) | 1.66 µM (inactive) | 2.29 µM (inactive) | 2.11 µM (inactive) | 3.53 µM (inactive) | 2.97 µM (inactive) | 2.59 µM (inactive) | 2.43 µM (inactive) | 2.21 µM (inactive) | 2.77 µM (inactive) | 3.01 µM (inactive) | 3.3 µM (inactive) | 2.92 µM (inactive) | 2.7 µM (inactive) |

Source: ChEMBL document CHEMBL1201862, “PubChem BioAssay data set” (2004)
